We go through four compounds from patent US5886022A, “Substituted cycloalkanecarboxylic acid derivatives as matrix metalloprotease inhibitors” (priority 1997, dated 1999).

Test [1] concerns the target T1, MMP-3 (recombinant stromelysin) (Homo sapiens, UniProt P08254).
T1 construct: Expression and Purification of Recombinant Truncated Prostromelysin (MMP-3); made in house
Briefly: Secondary P218 Quenched fluorescence Assay for MMP-3 Inhibition. In kind it is biochemical. An excerpt:
Truncated Prostromelysin-257 was expressed in a soluble form in E.coli as described by Marcy et al., Biochemistry, 30, 6476-6483, 1991. Soluble truncated prostromelysin was purified by a modification of the monoclonal antibody affinity chromatography method described by Housley et al., J. Biol. Chem., 268, 4481-87, 1993.
This assay was originally described by Knight et al., FEBS Letters, 296, 263-266, 1992, for a related substrate. The assay is run continuously in a 3.Oml cuvette using a Perkin-Elmer LS 50 B Spectrofluorimeter at 25° C. in a final volume of 2.0 mls. P218 substrate (10 mM) in 100% DMSO is diluted to a final concentration of 2.0 micromolar (μM) into assay buffer: 50 mM MES, pH 6.5 containing 150 mM NaCl, 10 mM CaCl2, 0.005% Brij-35, and 1%(v/v) DMSO. Test compounds(10 mM) in DMSO are diluted in assay buffer at an initial concentration of 10 to 100 micromolar. […] The reaction is initiated by the addition of recombinant stromelysin (MMP-3) at a final concentration of 1.0 nM. Upon peptide cleavage, the fluorescent MCA group was detected using an excitation wavelength of 328 nanometers and an emission wavelength of 393 nanometers. The assay is linear from 0.2 to 5 nM MMP-3 concentration and percent inhibition is calculated as described above for the primary thiopeptilide assay and IC50 values are determined by a linear regression analysis of percent inhibition versus log drug concentration. The peptide sequence of the MCA substrate, hereinafter esignated P218, is shown below:
MCA-Pro-Lys-Pro-Leu-Ala-Leu-DPA-Ala-Arg-NH2 P218
(§1) All IC50 values are expressed as nM. When "I=x %" is shown, x presents the % inhibition at 5 μM. When "x (n)" is shown, x is the erage IC50 value of n separate determinations.

Test [2] has as its target T2, MMP-3 (recombinant truncated stromelysin) (Homo sapiens, UniProt P08254).
T2 construct: made in house; host or cells: E. coli
The test can be described thus: Primary Thiopeptilide MMP-3 Inhibition Assay. Conditions: x (n): average IC50 of n separate determinations. In kind it is biochemical.
Protocol: Reaction mixtures for inhibitor studies contained 1 mM Ac-Pro-Leu-Gly-S-Leu-Leu-Gly-o-ethyl thiopeptolide substrate dissolved in HEPES assay buffer pH 6.5, along with 0.5 mM 5,5'-dithio-bis-(nitrobenzoicacid), drug concentrations ranging from 0.5 nM to 5 μM and activated enzyme (10-100 ng) in a total volume of 130 μl. […] Enzyme mediated substrate hydrolysis was corrected for non-enzymatic hydrolysis of the substrate by the subtraction of values from control samples incubated in the absence of enzyme. Drug efficacy was reported as the percent inhibition of enzyme activity calculated as:
Enzyme: recombinant stromelysin expressed in E.coli and purified as described above. […] The protocols for the assay of compounds as stromelysin inhibitors was the same as that used for MMP-9 except that the assay buffer was 50 mM MES, pH 6.5 containing 150mM NaCl, 10 mM CaCl2, 0.005% Brij, and 1% DMSO.
All IC50 values are expressed as nM. […] When "x (n)" is shown, x is the erage IC50 value of n separate determinations.

For test [3], the target named is T3, MMP-9 (Gelatinase-B, 92 kDa) (Homo sapiens, UniProt P14780).
T3 construct: from tissue; host or cells: human polymorphonuclear leukocytes from fresh whole blood (New York Blood Center), PMA-stimulated supernatant, purified
T3 sequence (P14780 107-707 limits assumed): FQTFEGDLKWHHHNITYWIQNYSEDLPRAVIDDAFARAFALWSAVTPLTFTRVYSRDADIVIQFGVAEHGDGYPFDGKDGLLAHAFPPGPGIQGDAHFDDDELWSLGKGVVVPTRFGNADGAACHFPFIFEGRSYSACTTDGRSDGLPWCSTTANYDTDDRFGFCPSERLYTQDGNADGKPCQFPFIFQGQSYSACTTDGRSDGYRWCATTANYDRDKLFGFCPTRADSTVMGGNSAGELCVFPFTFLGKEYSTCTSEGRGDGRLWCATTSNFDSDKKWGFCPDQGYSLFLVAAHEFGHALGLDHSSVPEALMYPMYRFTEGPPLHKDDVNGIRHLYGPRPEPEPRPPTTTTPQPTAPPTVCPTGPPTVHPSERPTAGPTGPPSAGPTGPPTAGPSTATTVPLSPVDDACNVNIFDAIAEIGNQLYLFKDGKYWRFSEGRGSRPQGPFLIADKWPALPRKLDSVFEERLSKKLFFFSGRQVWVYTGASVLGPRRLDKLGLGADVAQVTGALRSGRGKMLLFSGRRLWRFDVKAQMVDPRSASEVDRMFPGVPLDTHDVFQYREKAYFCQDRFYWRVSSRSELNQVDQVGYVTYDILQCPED
Briefly: Thiopeptilide MMP-9 Inhibition Assay. Type of test: biochemical. Conditions: x (n): average IC50 of n separate determinations. The protocol:
MMP-9 was isolated modifying the previously described procedures of Hibbs et al (J. Biol. Chem., 260, 2493-2500, 1984) and Wilhelm et al (J. Biol. Chem., 264, 17213-17221, 1989). Briefly, polymorphonuclear leukocytes (PMN) preparations were isolated as described above from 3 or more units of freshly drawn whole blood obtained from the New York Blood Center (N.Y., N.Y.). Cells were resuspended in phosphate buffered saline (PBS) containing 100 ng/ml phorbol myristate acetate (PMA) in the presence of 50 mM di-isopropylfluorophospate (DFP), 1 μg/ml leupeptin and aprotinin, and 1 mg/ml catalase for 1 hr at 37° C. Supernatants were collected by centrifugation (300×g) and the samples were frozen at -70° C. All chromatographic methods were performed at 4° C. Thawed samples were concentrated 5-fold using an Amicon chamber equipped with a YM-10 membrane. The concentrate was pressure dialyzed against 0.02M Tris-HCl, 0.1M NaCl, 1 mM CaCl2, 1 μM ZnCl2, 0.001 % Brij-35, 0.02% sodium azide (NaN3), pH 7.5 and applied to DEAE ion exchange chromatography resin which was previously equilibrated with the same buffer at a flow rate of 0.4 ml/min. The column was extensively washed with the same buffer and gelatinase was eluted as 4 ml fractions from the column with 0.02M Tris-HCl, 0.5M NaCl, 1 mM CaCl2, 1 μM ZnCl2, 0.001% Brij-35, 0.02% NaN3, pH 7.5. Gelatinase containing fractions were observed by gelatin zymography (see below), loaded onto a gelatin agarose affinity resin and washed with the same buffer. Gelatinase activity was eluted at a flow rate of 1 ml/min from the column as 1 ml fractions with 0.02M Tris-HCl, 1M NaCl, 1 mM CaCl2, 1 μmM ZnCl2, 0.001% Brij-35, 0.02% NaN3, pH 7.5 containing 10% dimethyl sulfoxide (DMSO). The fractions containing gelatinase activity were pooled and dialyzed against 0.005M Tris-HCl, 5 mM NaCl, 0.5 mM CaCl2, 0.1 μM ZnCl2, 0.001% Brij-35, pH 7.4. The protein content associated with material was determined with a micro-BCA assay (Pierce, Rockford, Ill.), lyophilized and reconstituted to a desired working concentration (100 μg/ml).
Progelatinase (10 μg/ml) isolated from human PMNs (described above) was activated with 1 mM 4-aminophenylmercuric acetate (APMA) in 50 mM Tris-HCl, 200 mM NaCl, 5 mM CaCl2, 0.001% Brij-35, pH 7.6 at 37° C. for 16 hr. The activated enzyme was dialyzed against the above buffer to remove APMA. The thiopeptolide spectrophotometric ( Weingarten, H., Feder, J., Anal. Biochem., 147, 437-440, 1985) substrate hydrolysis assay was modified to a micro-assay format. Spectrophotometric analysis of MMP-9 activity required a 1000-fold dilution of activated MMP-9 (10 ng/ml, 0.14 nM) in assay buffer comprised of 50 mM 4-(2-hydroxyethyl)1-piperazine ethane sulfonic acid (HEPES), 0.15M NaCl, 10 mM CaCl2, 0.001% Brij-35, pH 6.5 between 100 and 1000-fold for enzyme assays. Reaction mixtures for inhibitor studies contained 1 mM Ac-Pro-Leu-Gly-S-Leu-Leu-Gly-o-ethyl thiopeptolide substrate dissolved in HEPES assay buffer pH 6.5, along with 0.5 mM 5,5'-dithio-bis-(nitrobenzoicacid), drug concentrations ranging from 0.5 nM to 5 μM and activated enzyme (10-100 ng) in a total volume of 130 μl. The hydrolysis of substrate was monitored at 405 nm using an automated plate reader (Molecular Devices, Menlo Park, Calif.). Enzyme mediated substrate hydrolysis was corrected for non-enzymatic hydrolysis of the substrate by the subtraction of values from control samples incubated in the absence of enzyme. Drug efficacy was reported as the percent inhibition of enzyme activity calculated as:
(Control Values-Treated Values)/Control Values×100
Two way analysis of variance was used to determine significance between individual test groups.
as §1

For test [4] the following is noted: fenbufen analogs, literature; cited from earlier work.

T1 sequence (P08254 100-274 limits assumed): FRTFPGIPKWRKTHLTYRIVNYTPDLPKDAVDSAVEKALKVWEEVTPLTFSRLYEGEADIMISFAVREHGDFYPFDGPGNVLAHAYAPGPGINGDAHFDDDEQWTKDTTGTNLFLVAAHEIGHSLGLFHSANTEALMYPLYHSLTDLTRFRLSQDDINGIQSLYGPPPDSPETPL
T2 sequence (P08254 100-274 limits assumed): as above

For the compound “MCA-Pro-Lys-Pro-Leu-Ala-Leu-DPA-Ala-Arg-NH2 [Example P218, reference compound]”, the “cat/Km value of substrate for MMP-3” value in test [1] (pH 6.5) is recorded as 56,000 M^-1 sec^-1. The Km in test [1] (pH 6.5, read-out: Km of substrate for MMP-3) was found to be 16 µM.

In the case of `O=C(O)[C@@H]1[C@@H](C(=O)c2ccc(-c3ccc(Cl)cc3)cc2)CC[C@H]1Sc1ccccc1` (single isomer, unassigned) [Example 211, Cyclopentanecarboxylic acid, 2-[(4'-chloro[1,1'-biphenyl]-4-yl)carbonyl]-5-(phenylthio)-, [1S-(1α,2β,5β)]-], the half-inhibitory concentration (IC50) in test [1] (P218 substrate, x (n): average IC50 of n separate determinations, read-out: MMP-3 Fluorogenic IC50) came out at 12 nM; in test [2], 26 nM; in test [3], 25 nM.

Regarding `O=C(O)CC(C(=O)c1ccc(-c2ccccc2)cc1)c1ccccc1` (stereo not shown) [LXXVII], the activity in words entry in test [4] is “inactive”.

Take `CC(CC(=O)c1ccc(-c2ccccc2)cc1)C(=O)O` (stereo not shown) [XLVIII]: the activity in words result in test [4] is “inactive”.
